Reference: patent publication US6255285A, “Phenethylamine derivatives” (Chugai Seiyaku Kabushiki Kaisha, priority 1997, dated 2001)
Square brackets hold non-standard residues; d marks the D form. Peptide text beside a SMILES is read from it. Tyr(3-tBu) = CC(C)(C)c1cc(C[CH](N)C(=O)O)ccc1O; Phg = N[CH](C(=O)O)c1ccccc1

Key:
motilin receptor = target: T1, motilin receptor (Oryctolagus cuniculus, UniProt G1T803); assay: Motilin receptor binding test; conditions: rabbit duodenum homogenate, 125I motilin 25 pM; concentration reducing specific binding by 50%
T1 construct: had the mucous membrane separated and homogenized in 50 mM Tris-HCl buffer to prepare a receptor sample; from tissue; host or cells: rabbit duodenum with the mucosa removed, homogenate
Experimental: Motilin Receptor Binding Test
A motilin receptor binding test was conducted in the following manner [Bormans et al., Regul. Peptides, 15, 143 (1986)]. The duodenum was extracted from a slaughtered rabbit, had the mucous membrane separated and homogenized in 50 mM Tris-HCl buffer to prepare a receptor sample. The sample was incubated together with ^125 I motilin 25 pM and thereafter the radioactivity bound to the receptor was measured. Specific binding was defined as the difference between the radioactivity in the case of adding 1% DMSO in place of the compounds of the examples and that in the case of adding a great excess amount of motilin (10^-7 M). The activity of each compound was expressed by IC50 (in nM), as the concentration sufficient to reduce the specific binding by 50%.

[1] = test system: motilin-induced contraction of a specimen of longitudinal muscle in the duodenum extracted from a rabbit; assay: Contraction suppressing test: action on motilin-induced contraction of duodenum longitudinal muscle specimen; assay type: cell-based; conditions: rabbit duodenum specimen in organ bath, Krebs solution 28° C.; effect on dose-dependent contraction by motilin
Experimental: Action on the Contraction of a Specimen of Longitudinal Muscle in the Duodenum Extracted from a Rabbit
The action on the motilin-induced contraction of a specimen of longitudinal muscle in the duodenum extracted from a rabbit was investigated by the following method. A duodenum specimen extracted from a slaughtered rabbit (3×10 mm) was suspended in an organ bath (10 ml) such that the longitudinal muscle would run vertically; the bath was filled with a Krebs solution kept at 28° C. A mixed gas (95% O2 and 5% CO2) was continuously bubbled into the Krebs solution and the contraction of the duodenum specimen was recorded isotonically (with a 1-g load) via an isotonic transducer (TD-111T of Nihon Koden, K.K.) The degree of contraction was expressed in relative values, with the contraction by acetylcholine at a dose of 10^-4 M being taken as 100%. The activity of each compound was calculated as pA2 value indicating its effect on the dose-dependent muscle contraction by the motilin put into the organ bath.

T1 sequence (G1T803 1-400): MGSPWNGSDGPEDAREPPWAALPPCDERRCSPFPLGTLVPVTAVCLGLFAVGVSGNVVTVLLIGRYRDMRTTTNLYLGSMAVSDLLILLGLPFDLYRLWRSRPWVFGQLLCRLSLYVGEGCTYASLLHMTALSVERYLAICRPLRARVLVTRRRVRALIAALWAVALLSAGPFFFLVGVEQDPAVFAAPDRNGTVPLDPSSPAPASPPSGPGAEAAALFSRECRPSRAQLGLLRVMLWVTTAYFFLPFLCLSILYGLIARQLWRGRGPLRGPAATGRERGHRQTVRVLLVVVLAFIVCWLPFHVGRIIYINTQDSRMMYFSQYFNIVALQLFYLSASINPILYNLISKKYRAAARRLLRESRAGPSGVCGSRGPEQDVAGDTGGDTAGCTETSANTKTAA

Row | SMILES | IC50 (motilin receptor) | Contraction suppressing test, pA2 [1]
1 | CC(C)(C)c1cc(CC(NC(=O)C(NC(=O)C(N)Cc2ccccc2)c2ccccc2)C(N)=O)ccc1O (stereo not drawn) [Example 5, Phe-Phg-Tyr(3-tBu)-NH2] (H-Phe-[Phg]-[Tyr(3-tBu)]-NH2; configuration not given here) | 12 nM | 7.81
2 | CN(C(=O)C(N)Cc1ccccc1)C(C(=O)NC(Cc1ccc(O)c(C(C)(C)C)c1)C(N)=O)c1ccccc1 [Example 18B, Phe-N-Me-D-Phg-Tyr(3-tBu)-NH2] | 3.7 nM | 8.58
3 | CC(Cc1ccc(O)c(C(C)(C)C)c1)NC(=O)C(C(C)C)N(C)C(=O)[C@@H](N)Cc1ccccc1 (some centres unmarked) [Example 118, N-[2-(3-tert-butyl-4-hydroxyphenyl)-1-methylethyl]-3-methyl-2-(N-methyl-N-phenylalanylamino)butanamide] | 1.9 nM | 8.43
4 | CC(C)[C@@H](C(=O)N(C)[C@@H](Cc1ccc(O)c(C(C)(C)C)c1)C(N)=O)N(C)C(=O)[C@@H](N)Cc1ccccc1 [Example 119, Phe-N-Me-Val-N-Me-Tyr(3-tBu)-NH2] (HELM PEPTIDE1{F.[meV].[CN([C@@H](Cc1ccc(O)c(C(C)(C)C)c1)C(=O)[*:2])[*:1]].[am]}$$$$V2.0) | 4.3 nM | 8.59
